According to patent US11434490B2, “Fluorogen-binding RNA aptamers” (CENTRE NATIONAL DE LA RECHERCHE SCIENTIFIQUE, priority 2017, dated 2022):

Assays:
[1] = cited from earlier work
[2] = Fluorescence titration, binding affinity for TO1-Biotin; settings: ligand TO1-B (TO1-Biotin)
Source text: (§1) FIG. 2|RNA Mango I, II, III and IV core sequences and their properties. (a) Color coded alignment of RNA Mango I, II, III and IV. G residues in yellow are protected from DMS cleavage (data from panel d) when folded in the presence of fluorophore. Quadruplex stacks and their associated propeller sequences are numbered 1 through 4. The GAAA isolation motif of Mango I, together with two adenines essential for binding, are shown in green and red respectively. Purple shading represents a flanking stem region common for all four Mango aptamers. Schematic: A tertiary structure schematic of Mango I, showing tier 1, 2 and 3 of its quadruplex structure (T1, T2 and T3) and color-coded as in (a). […] Bottom: Top view of the Mango I core (PBD ID: 5V3F), showing the T3 tier of the quadruplex and relevant propeller residues, color coding matches the schematic and panel a. […] KD values are shown next to each titration. (c) Same as for panel b but using 20 nM TO3-Biotin. Data for panels b and c have been normalized such that Mango I has a maximum fluorescence of 1. Error bars are standard deviation of three replicates. (d) DMS chemical protection patterns for the four Mango aptamers. 3′ end-labelled RNA (terminal ^32pCp shown as a black asterisk) was subjected to DMS chemical modification followed by reduction by NaBH4 and aniline cleavage as described in the methods. […] Legend: T1—denatured T1 ladder; OH—partial alkaline hydrolysis ladder; (−) DMS—denatured reaction with ddH2O added in place of DMS; 80° C.
(§2) Fluorescence data was gathered using a Varian Cary Eclipse Spectrophotometer unless otherwise stated. […] Fluorescence was measured at the maximum excitation and emission wavelengths of each complex (FIG. 13).
Where F([RNA]) is the fluorescence as a function of RNA concentration [RNA], Fmax is the maximal fluorescence of the bound complex and Funbound the fluorescence of the unbound fluorophore. When the fluorescence of Funbound was undetectable, it was set to zero.
(§3) Fluorescence readings were recorded using a Varian Cary Eclipse Spectrophotometer set to measure at the maximum excitation and emission wavelengths of the Mango II aptamer dye complex. Fluorescence titrations were performed in Mango selection buffer (WB: 140 mM KCl, 1 mM MgCl2, 10 mM NaH2PO4 pH 7.2, 0.05% Tween-20).

[3] = Fluorescence enhancement of TO1-Biotin; format: biochemical; settings: ligand TO1-B; calculated relative to wt from the binding titration
Description: (§4) The bandwidth for all measurements was 1.5 nm for all experiments. Measurements were performed in a 0.2 cm path length cuvette in a background of 20 mM MOPS pH 7.0, 150 mM KCl, 10 μM EDTA. Fluorescence readings were taken in the absence of RNA at a ligand concentration of 0.82 μM. A concentrated, annealed stock of RNA was then added to the cuvette resulting in a final concentration of 2 μM RNA and allowed to equilibrate for 1 minute prior to taking an emission reading. Fluorescence enhancement was determined by dividing the fluorescence signal of ligand in the presence of RNA by the fluorescence signal in the absence of RNA corrected for the background of the instrument.

[4] = Fluorescence titration, binding affinity for TO3-Biotin; settings: ligand TO3-B (TO3-Biotin)
Source text: as §1, §2
Or to the following equation for TO3-Biotin and NMM experiments: F([RNA])=Fmax[RNA]/(KD+[RNA])+Funbound (Eq. 2) Fmax was determined using Eq. 1 or Eq. 2 as appropriate. Temperature Dependent Fluorescence and UV Melting Curves
as §3

[5] = Fluorescence enhancement of TO3-Biotin; format: biochemical; settings: ligand TO3-B; calculated relative to wt from the binding titration
Description: as §4

HEK293T cells = test: Cellular imaging of transfected Mango tagged RNAs; format: cell-based; settings: fixed cells
Description: HEK293T cells were grown in Dulbecco Modified Eagle's Medium containing 10% Fetal Bovine Serum, 2 mM D-Glucose, 2 mM L-Glutamine, 1 mM Sodium Pyruvate and 100 U/ml Penicillin/Streptomycin (Thermo Fisher) and maintained at 37° C. with 5% CO2 in a humidified incubator. Cells used for imaging were cultured in Ibidi glass bottomed 8-well chamber slides (Ibidi GmbH).
RNA was transfected directly into 8-well chamber slides using the Lipofectamine-based CRISPRMAX reagent following the manufacturers guidelines (Invitrogen). Initially 125 nM RNA containing 10 mM Sodium Phosphate buffer (pH 7.2), 100 mM KCl and 1 mM MgCl2 was incubated at room temperature followed by a 1:1 dilution in OptiMEM prior to transfection. The RNA transfected was incubated at 37° C. for 1 hour in complete growth medium.
Cells were fixed in PBS containing 4% paraformaldehyde for 10 min on ice (Thermo Fisher) followed by permeabilization in 0.2% Triton X-100 for 10 min at room temperature. Cells were first blocked (2% BSA in PBS) for 30 min followed by primary antibody (1:50-1:500 dilutions) incubation for 120 min in blocking solution.
Primary antibodies used here were: Anti-Ribosomal Protein S6 (MAB5436, R&D Systems), Anti-ATP5B (ab14730, Abcam), Anti-GW182 (ab7052, Abcam), Anti-EEA-1 (ab70521, Abcam), Anti-LSm3 (NBP2-14206, Novus Biologicals), Anti-TIAR (sc-398372, Santa Cruz). Secondary antibodies used were Donkey Anti-mouse and Donkey Anti-Rabbit Alexa Fluor 680 (Molecular Probes). Primary antibodies were washed three times for 20 min each in blocking solution followed by incubation with secondary antibody at 1:500 dilution for 60 min, which was subsequently washed as above.
To visualize the nuclear boundary in live cells, a plasmid expressing a fluorescently tagged histone protein (EBFP2-H2B-6, Addgene plasmid 55243) was transfected using FuGene 6 (Promega) 24 h prior to RNA transfection. […] Following incubation of the RNA transfection, the cells were washed once with PBS and replaced with live-cell imaging media (Fluorobrite DMEM supplemented with 20 mM HEPES, Invitrogen). Live and fixed cell images were taken using a Zeiss Elyra wide-field microscope by exciting at 405 nm (Blue), 488 nm (Green) and 642 nm (Far-Red) and detecting at 420-480 nm, 495-550 nm and >650 nm, respectively. Live cells were maintained at 37° C. with 5% CO2 in a stage top incubator (Tokai Hit). Images were processed using FIJI and spot detection analysis was performed on each maximum projection by the spot detector plugin in the ICY image analysis software, which detects significant foci with a pixel area 3×3 pixels.

Row | Molecule | Kd [2] [nM] | FIE (fluorescence enhancement) † [3] | also measured
1 | CN1C(=Cc2cc[n+](C)c3ccccc23)Sc2ccccc21 [TO1, Thiazole Orange] | – | – | fluorescence quantum yield ϕ ([1]; aqueous solution): 2×10^−4; intracellular half-life [1]: short intracellular half-life; membrane permeability [1]: plasma and nuclear membrane permeability; fluorescence quantum yield ([1]; inserted into double-stranded helical nucleic acids): 0.11
2 | Mango II - A15U A20U A25U: Mango-II triple mutant; SEQ ID NO: 6911 (GGCACGUACGAAGGUGAGGUGAGGUAGAGGAGAGUACGUGC; chemistry not given here) | 0.76 ± 0.24 | 1329 † | –
3 | Mango II - A15U A20U A25U A26U A31U: Mango-II five-fold mutant; SEQ ID NO: 6910 (GGCACGUACGAAGGUGAGGUGAGGUUGAGGUGAGUACGUGC; chemistry not given here) | 1.92 ± 0.39 | 1133 † | –
4 | Mango II - A17U: Mango-II point mutant; SEQ ID NO: 6909 (GGCACGUACGAAGGAGAGGUGAGGAAGAGGAGAGUACGUGC; chemistry not given here) | 1 ± 0.16 | 1237 † | –
5 | Mango II - A22G: Mango-II point mutant; SEQ ID NO: 6907 (GGCACGUACGAAGGAGAGGAGAGGGAGAGGAGAGUACGUGC; chemistry not given here) | 6.4 ± 1.5 | 1224 † | Kd [4]: 7.6 ± 3.7 nM; FIE (fluorescence enhancement) † [5]: 52 †
6 | Mango II - A12U: Mango-II point mutant; SEQ ID NO: 6908 (GGCACGUACGAAGGUGAGGAGAGGAAGAGGAGAGUACGUGC; chemistry not given here) | 0.4 ± 0.07 | 1342 † | –
7 | 5S-F30-Mango IV: 5S rRNA tagged with Mango IV in F30 scaffold; SEQ ID NO: 6894 | – | – | foci formation after transfection (HEK293T cells): consistently exhibit visible foci; fraction of foci that are clearly nuclear (HEK293T cells): ~5%; fraction of foci that are cytoplasmic (HEK293T cells): ~85%; mean intensity of foci against 5S-F30-Control background (HEK293T cells; 200 nM TO1-Biotin): two to three-fold higher
8 | Mango II - A22C: Mango-II point mutant; SEQ ID NO: 6906 (GGCACGUACGAAGGAGAGGAGAGGCAGAGGAGAGUACGUGC; chemistry not given here) | 0.9 ± 0.2 | 1407 † | Kd [4]: 5.1 ± 1.4 nM; FIE (fluorescence enhancement) † [5]: 37 †
